According to the kinase profiling compilation of Christmann-Franck et al. (2016):

Tests used:
Assay in all cases: split-luciferase competition binding
AKT3 (human) = AKT3 (human) (UniProt Q9Y243); conditions: compound 10.0 µM
RPS6KA5 KD1 (human) = RPS6KA5 KD1 (human) (UniProt O75582); conditions: compound 10.0 µM
RPS6KA3 KD1 (human) = RPS6KA3 KD1 (human) (UniProt P51812); conditions: compound 10.0 µM
AKT2 (human) = AKT2 (human) (UniProt P31751); conditions: compound 10.0 µM
AURKA (human) = AURKA (human) (UniProt O14965); conditions: compound 10.0 µM
AURKA (human), sequence (O14965 whole entry, looked up): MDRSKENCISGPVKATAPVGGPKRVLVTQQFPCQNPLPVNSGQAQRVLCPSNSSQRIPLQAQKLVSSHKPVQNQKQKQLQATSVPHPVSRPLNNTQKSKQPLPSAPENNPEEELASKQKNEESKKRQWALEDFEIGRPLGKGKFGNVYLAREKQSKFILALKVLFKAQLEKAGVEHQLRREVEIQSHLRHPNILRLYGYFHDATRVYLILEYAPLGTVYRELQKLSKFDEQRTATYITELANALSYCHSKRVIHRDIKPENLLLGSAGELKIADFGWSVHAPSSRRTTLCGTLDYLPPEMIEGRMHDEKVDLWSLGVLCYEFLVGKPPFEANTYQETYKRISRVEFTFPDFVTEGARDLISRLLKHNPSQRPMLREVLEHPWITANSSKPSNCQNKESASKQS

AKT1 (human) = AKT1 (human) (UniProt P31749); conditions: compound 10.0 µM
AKT1 (human), sequence (P31749 whole entry, looked up): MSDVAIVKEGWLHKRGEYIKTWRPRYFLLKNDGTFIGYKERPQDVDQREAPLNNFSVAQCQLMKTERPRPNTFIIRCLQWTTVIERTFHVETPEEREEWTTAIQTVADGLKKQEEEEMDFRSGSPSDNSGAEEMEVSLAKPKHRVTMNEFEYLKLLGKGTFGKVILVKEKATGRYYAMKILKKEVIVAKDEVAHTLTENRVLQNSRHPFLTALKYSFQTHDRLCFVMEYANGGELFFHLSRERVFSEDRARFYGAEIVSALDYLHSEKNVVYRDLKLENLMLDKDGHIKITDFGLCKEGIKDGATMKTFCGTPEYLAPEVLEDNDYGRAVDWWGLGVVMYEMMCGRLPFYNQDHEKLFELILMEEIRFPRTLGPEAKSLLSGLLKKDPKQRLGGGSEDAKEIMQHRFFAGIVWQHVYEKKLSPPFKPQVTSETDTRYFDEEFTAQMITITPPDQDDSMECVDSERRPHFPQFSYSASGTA

PKN1 (human) = PKN1 (human) (UniProt Q16512); conditions: compound 10.0 µM
PKN1 (human), sequence (Q16512 whole entry, looked up): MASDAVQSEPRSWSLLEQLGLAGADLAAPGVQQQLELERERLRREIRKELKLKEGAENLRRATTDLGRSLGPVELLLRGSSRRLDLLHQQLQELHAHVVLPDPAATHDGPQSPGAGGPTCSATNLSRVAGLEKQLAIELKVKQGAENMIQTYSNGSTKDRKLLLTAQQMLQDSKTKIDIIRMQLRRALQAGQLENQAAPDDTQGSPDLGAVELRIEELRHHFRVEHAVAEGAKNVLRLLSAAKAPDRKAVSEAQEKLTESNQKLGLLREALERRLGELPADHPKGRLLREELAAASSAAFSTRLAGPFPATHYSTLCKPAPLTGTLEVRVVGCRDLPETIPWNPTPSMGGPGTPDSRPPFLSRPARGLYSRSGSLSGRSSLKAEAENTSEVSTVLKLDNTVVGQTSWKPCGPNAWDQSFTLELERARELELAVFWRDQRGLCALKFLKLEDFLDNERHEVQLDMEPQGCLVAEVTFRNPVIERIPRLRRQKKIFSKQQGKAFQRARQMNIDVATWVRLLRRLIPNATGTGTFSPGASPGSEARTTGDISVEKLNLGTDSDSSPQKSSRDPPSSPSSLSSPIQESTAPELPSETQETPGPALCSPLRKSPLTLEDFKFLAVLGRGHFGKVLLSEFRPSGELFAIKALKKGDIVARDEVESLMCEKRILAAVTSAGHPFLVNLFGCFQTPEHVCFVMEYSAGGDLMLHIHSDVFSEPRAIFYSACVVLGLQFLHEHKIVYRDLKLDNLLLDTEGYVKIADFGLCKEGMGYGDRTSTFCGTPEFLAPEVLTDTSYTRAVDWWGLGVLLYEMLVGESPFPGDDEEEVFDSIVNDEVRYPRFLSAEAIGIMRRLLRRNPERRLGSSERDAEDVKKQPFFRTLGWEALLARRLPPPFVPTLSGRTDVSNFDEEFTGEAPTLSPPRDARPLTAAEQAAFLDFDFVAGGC

STK32B (human) = STK32B (human) (UniProt Q9NY57); conditions: compound 10.0 µM
STK32B (human), sequence (Q9NY57 whole entry, looked up): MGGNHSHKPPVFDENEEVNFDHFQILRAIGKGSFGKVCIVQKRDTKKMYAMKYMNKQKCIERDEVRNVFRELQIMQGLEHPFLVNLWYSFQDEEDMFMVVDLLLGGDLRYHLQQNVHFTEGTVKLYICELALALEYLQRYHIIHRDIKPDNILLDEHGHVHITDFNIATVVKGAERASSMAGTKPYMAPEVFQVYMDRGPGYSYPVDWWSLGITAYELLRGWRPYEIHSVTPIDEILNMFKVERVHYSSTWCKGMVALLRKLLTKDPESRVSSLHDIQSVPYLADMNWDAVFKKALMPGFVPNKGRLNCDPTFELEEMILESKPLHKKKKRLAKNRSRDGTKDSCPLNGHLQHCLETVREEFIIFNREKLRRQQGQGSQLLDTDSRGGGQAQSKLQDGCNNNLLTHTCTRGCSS

RPS6KA2 KD1 (human) = RPS6KA2 KD1 (human) (UniProt Q15349); conditions: compound 10.0 µM
PRKCH (human) = PRKCH (human) (UniProt P24723); conditions: compound 10.0 µM
PRKCH (human), sequence (P24723 whole entry, looked up): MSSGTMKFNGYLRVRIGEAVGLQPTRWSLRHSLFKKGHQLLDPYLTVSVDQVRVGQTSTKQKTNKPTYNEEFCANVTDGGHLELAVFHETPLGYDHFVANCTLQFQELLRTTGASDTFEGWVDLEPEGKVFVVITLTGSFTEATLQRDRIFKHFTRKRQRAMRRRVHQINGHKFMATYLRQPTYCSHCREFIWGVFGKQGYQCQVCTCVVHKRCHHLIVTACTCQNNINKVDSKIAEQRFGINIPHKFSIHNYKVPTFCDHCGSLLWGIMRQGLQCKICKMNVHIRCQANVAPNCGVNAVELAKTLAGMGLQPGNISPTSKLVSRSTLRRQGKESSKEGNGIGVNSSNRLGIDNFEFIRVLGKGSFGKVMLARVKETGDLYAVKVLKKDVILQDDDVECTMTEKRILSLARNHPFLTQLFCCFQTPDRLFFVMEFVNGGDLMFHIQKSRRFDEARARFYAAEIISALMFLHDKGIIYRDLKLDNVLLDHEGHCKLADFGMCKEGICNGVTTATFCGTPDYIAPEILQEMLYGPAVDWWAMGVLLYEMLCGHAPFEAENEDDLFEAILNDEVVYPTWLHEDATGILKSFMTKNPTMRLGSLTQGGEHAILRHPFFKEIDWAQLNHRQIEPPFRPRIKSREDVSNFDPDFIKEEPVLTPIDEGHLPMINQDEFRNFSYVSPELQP

AURKC (human) = AURKC (human) (UniProt Q9UQB9); conditions: compound 10.0 µM
PRKX (human) = PRKX (human) (UniProt P51817); conditions: compound 10.0 µM
RPS6KA4 KD1 (human) = RPS6KA4 KD1 (human) (UniProt O75676); conditions: compound 10.0 µM
RPS6KA1 KD1 (human) = RPS6KA1 KD1 (human) (UniProt Q15418); conditions: compound 10.0 µM
DMPK (human) = DMPK (human) (UniProt Q09013); conditions: compound 10.0 µM
DMPK (human), sequence (Q09013 whole entry, looked up): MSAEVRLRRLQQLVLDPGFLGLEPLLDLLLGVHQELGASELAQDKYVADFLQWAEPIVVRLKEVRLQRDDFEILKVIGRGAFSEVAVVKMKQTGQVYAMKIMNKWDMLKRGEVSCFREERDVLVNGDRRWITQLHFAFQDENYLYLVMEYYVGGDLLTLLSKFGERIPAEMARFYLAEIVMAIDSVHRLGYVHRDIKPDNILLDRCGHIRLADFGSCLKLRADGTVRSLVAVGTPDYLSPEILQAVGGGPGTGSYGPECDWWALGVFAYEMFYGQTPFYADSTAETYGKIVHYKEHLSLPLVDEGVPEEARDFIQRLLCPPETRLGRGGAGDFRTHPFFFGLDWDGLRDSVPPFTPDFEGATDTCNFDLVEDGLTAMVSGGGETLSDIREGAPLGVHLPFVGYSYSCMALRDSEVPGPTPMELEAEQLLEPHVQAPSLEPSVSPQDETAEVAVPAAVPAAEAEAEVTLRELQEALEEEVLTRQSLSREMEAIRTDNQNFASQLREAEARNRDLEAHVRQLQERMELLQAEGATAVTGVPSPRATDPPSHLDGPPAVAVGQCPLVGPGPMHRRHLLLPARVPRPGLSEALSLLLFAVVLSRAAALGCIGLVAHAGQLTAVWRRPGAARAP

PRKCQ (human) = PRKCQ (human) (UniProt Q04759); conditions: compound 10.0 µM
SGK2 (human) = SGK2 (human) (UniProt Q9HBY8); conditions: compound 10.0 µM
PRKACA (mouse) = conditions: compound 10.0 µM; accession and sequence are those of the human protein
RPS6KA6 KD1 (human) = RPS6KA6 KD1 (human) (UniProt Q9UK32); conditions: compound 10.0 µM
PRKCE (human) = PRKCE (human) (UniProt Q02156); conditions: compound 10.0 µM
PRKCE (human), sequence (Q02156 whole entry, looked up): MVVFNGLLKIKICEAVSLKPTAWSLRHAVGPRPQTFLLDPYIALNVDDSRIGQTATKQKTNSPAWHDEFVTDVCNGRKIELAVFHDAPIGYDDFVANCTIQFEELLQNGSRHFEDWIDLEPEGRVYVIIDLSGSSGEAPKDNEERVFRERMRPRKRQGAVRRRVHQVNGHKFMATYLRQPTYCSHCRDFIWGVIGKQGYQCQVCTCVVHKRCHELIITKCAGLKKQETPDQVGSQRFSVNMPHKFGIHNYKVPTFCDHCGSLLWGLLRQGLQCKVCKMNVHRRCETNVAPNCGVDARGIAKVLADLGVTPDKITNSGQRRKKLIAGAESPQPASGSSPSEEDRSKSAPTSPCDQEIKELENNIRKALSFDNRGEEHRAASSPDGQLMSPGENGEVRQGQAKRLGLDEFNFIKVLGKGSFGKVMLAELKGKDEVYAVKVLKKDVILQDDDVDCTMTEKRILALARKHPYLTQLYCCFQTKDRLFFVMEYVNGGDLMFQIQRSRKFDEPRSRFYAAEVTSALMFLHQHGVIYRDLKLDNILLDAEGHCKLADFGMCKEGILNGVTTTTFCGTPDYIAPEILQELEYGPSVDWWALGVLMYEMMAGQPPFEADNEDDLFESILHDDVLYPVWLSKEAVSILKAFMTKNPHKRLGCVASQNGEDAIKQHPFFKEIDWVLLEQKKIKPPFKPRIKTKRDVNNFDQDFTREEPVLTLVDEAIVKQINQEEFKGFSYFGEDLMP

PRKACB (human) = PRKACB (human) (UniProt P22694); conditions: compound 10.0 µM
AURKB (human) = AURKB (human) (UniProt Q96GD4); conditions: compound 10.0 µM
PDPK1 (human) = PDPK1 (human) (UniProt O15530); conditions: compound 10.0 µM
PRKCD (human) = PRKCD (human) (UniProt Q05655); conditions: compound 10.0 µM
PRKCI (human) = PRKCI (human) (UniProt P41743); conditions: compound 10.0 µM
PRKCG (human) = PRKCG (human) (UniProt P05129); conditions: compound 10.0 µM
SGK3 (human) = SGK3 (human) (UniProt Q96BR1); conditions: compound 10.0 µM

AKT3 (human), sequence (Q9Y243 whole entry, looked up): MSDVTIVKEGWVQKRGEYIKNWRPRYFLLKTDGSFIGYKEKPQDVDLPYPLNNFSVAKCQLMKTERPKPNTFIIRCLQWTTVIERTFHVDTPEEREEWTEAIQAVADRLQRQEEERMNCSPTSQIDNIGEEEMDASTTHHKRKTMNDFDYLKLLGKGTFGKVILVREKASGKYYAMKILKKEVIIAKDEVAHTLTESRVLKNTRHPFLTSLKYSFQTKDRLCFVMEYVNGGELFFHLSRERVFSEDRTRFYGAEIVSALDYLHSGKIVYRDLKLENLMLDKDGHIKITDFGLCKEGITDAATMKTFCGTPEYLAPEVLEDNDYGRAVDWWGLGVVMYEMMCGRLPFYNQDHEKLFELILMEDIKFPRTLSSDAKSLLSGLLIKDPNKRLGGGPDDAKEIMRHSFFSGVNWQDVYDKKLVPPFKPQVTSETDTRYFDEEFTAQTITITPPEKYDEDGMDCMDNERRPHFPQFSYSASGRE

Row | Structure (SMILES) | inhibition (AKT3 (human)) | inhibition (RPS6KA5 KD1 (human)) | inhibition (RPS6KA3 KD1 (human)) | inhibition (AURKA (human)) | inhibition (AKT1 (human)) | inhibition (PKN1 (human)) | inhibition (STK32B (human)) | inhibition (RPS6KA2 KD1 (human)) | inhibition (AURKC (human)) | inhibition (PRKX (human)) | inhibition (RPS6KA4 KD1 (human)) | inhibition (RPS6KA1 KD1 (human)) | inhibition (DMPK (human)) | inhibition (PRKCQ (human)) | inhibition (PRKACA (mouse)) | inhibition (RPS6KA6 KD1 (human)) | inhibition (PRKCE (human)) | inhibition (PRKACB (human)) | inhibition (PDPK1 (human)) | inhibition (PRKCD (human)) | other results
1 | CS(=O)c1ccc(-c2nc(-c3ccc(F)cc3)c(-c3ccncc3)[nH]2)cc1 (stereo not drawn) | 0% | 0% | 2% | 6% | 11% | 0% | 36% | 3% | 0% | 0% | 0% | 0% | 0% | 0% | 0% | 0% | 0% | 0% | 3% | 0% | inhibition (AKT2 (human)): 0%; inhibition (PRKCH (human)): 5%; inhibition (SGK2 (human)): 0%; inhibition (AURKB (human)): 0%; inhibition (PRKCI (human)): 0%; inhibition (PRKCG (human)): 0%; inhibition (SGK3 (human)): 0%
2 | CN(C)CCCn1cc(C2=C(c3c[nH]c4ccccc34)C(=O)NC2=O)c2ccccc21 | 37% | 39% | 33% | 2% | 5% | 5% | 29% | 59% | 0% | 10% | 30% | 40% | 34% | 69% | 26% | 32% | 37% | 34% | 0% | 52% | inhibition (AKT2 (human)): 0%; inhibition (PRKCH (human)): 77%; inhibition (SGK2 (human)): 0%; inhibition (AURKB (human)): 0%; inhibition (PRKCI (human)): 35%; inhibition (PRKCG (human)): 11%; inhibition (SGK3 (human)): 2%
3 | CO[C@@H]1[C@H](N(C)C(=O)c2ccccc2)C[C@H]2O[C@]1(C)n1c3ccccc3c3c4c(c5c6ccccc6n2c5c31)C(=O)NC4 | 31% | 66% | 79% | 26% | 55% | 23% | 56% | 70% | 38% | 71% | 70% | 56% | 29% | 55% | 63% | 75% | 57% | 81% | 10% | 52% | inhibition (PRKCH (human)): 60%; inhibition (SGK2 (human)): 22%; inhibition (AURKB (human)): 44%; inhibition (PRKCI (human)): 65%; inhibition (PRKCG (human)): 52%; inhibition (SGK3 (human)): 43%
4 | O=S(=O)(NCCNC/C=C/c1ccc(Br)cc1)c1cccc2cnccc12 | 15% | 0% | 5% | 0% | 21% | 0% | 17% | 0% | 12% | 87% | 10% | 0% | 0% | 40% | 67% | 5% | 9% | 75% | 0% | 10% | inhibition (AKT2 (human)): 0%; inhibition (PRKCH (human)): 34%; inhibition (AURKB (human)): 2%; inhibition (PRKCI (human)): 80%; inhibition (PRKCG (human)): 0%; inhibition (SGK3 (human)): 41%
5 | O=C(c1ccc(Nc2nccc(-c3cc4ccccc4s3)n2)cc1)N1CCC(N2CCCC2)CC1 | 0% | 0% | 2% | 19% | 0% | 0% | 8% | 0% | 15% | 29% | 0% | 4% | 18% | 38% | 12% | 10% | 40% | 12% | 9% | 4% | inhibition (AKT2 (human)): 0%; inhibition (SGK2 (human)): 69%; inhibition (AURKB (human)): 32%; inhibition (PRKCI (human)): 0%; inhibition (PRKCG (human)): 13%; inhibition (SGK3 (human)): 62%
6 | COc1cc2ncn(-c3cc(OCc4ccccc4C(F)(F)F)c(C(N)=O)s3)c2cc1OC | 0% | 0% | 27% | 2% | 12% | 4% | 15% | 30% | 28% | 11% | 14% | 10% | 18% | 23% | 14% | 59% | 12% | 12% | 2% | 4% | inhibition (AKT2 (human)): 0%; inhibition (PRKCH (human)): 0%; inhibition (SGK2 (human)): 4%; inhibition (PRKCI (human)): 0%; inhibition (PRKCG (human)): 10%; inhibition (SGK3 (human)): 0%
